According to PMC11397024, “Strategic Fluorination to Achieve a Potent, Selective, Metabolically Stable, and Orally Bioavailable Inhibitor of CSNK2” (Molecules, 2024):

How the values were obtained:
CLK1 = target: T1, CLK1 (Homo sapiens, UniProt P49759); test: NanoBRET dose-response CLK1; format: cell-based
T1 construct: purchased Promega (NanoBRET Target Engagement K192 Kinase Selectivity System)

[1] = Liver microsomal stability, human; format: in vitro ADME; settings: pH 7.4, human liver microsomes, five time points over 1 h, read-out: HLM CLint
192 human kinases = test: NanoBRET K192 panel, whole panel; format: cell-based; settings: six off-target kinases, dose-response experiments
Protocol: (§1) The K192 selectivity assay was run according to the Draft Promega technical manual, NanoBRET^TM Target Engagement K192 Kinase Selectivity System. Reagents were supplied by Promega (Promega NP 4101). For the assay, DNA from the prepared kinase vector panel plates A and B were mixed with Fugene in 96-well plates (Corning 3917) and incubated at room temperature for 30 min. The NanoLuc® Low control vector pNL1.1.CMV [Nluc/CMV] Vector (Cat.# N1091) and the transfection control vector NanoLuc®-HIPK2 Fusion Vector (Cat.# NV3221) were used as controls.
HEK293 cells were grown to 75–95% confluency in DMEM (Gibco 11995-065) supplemented with FBS (Avantor 97068-085) at 37 °C in 5% RH. […]
On day two of the assay, 5 μL of 20X K10 tracer was prepared and added at concentrations recommended by Promega. […] After 2–3 min, the plate was shaken at 300 RPM for 10 s, and the donor emission wavelength (450 nm) and acceptor emission wavelength (610 nm) were measured using the Glomax® Discover System.
(§2) As a quality check, the donor signal-to-background ratio was calculated for each individual kinase by dividing the mean donor signal for each kinase by the mean donor signal for the signal-to-background control wells. Fractional occupancy of the test drug for each kinase was determined using the following formula:Occupancy (%) = [1 − (Sample − Bottom)/(Top − Bottom)] × 100 where

AAK1 = target: T2, AAK1 (Homo sapiens, UniProt Q2M2I8); test: NanoBRET K192; format: cell-based; settings: HEK293
T2 construct: purchased Promega (NanoBRET Target Engagement K192 Kinase Selectivity System)
T2 sequence (Q2M2I8 whole entry): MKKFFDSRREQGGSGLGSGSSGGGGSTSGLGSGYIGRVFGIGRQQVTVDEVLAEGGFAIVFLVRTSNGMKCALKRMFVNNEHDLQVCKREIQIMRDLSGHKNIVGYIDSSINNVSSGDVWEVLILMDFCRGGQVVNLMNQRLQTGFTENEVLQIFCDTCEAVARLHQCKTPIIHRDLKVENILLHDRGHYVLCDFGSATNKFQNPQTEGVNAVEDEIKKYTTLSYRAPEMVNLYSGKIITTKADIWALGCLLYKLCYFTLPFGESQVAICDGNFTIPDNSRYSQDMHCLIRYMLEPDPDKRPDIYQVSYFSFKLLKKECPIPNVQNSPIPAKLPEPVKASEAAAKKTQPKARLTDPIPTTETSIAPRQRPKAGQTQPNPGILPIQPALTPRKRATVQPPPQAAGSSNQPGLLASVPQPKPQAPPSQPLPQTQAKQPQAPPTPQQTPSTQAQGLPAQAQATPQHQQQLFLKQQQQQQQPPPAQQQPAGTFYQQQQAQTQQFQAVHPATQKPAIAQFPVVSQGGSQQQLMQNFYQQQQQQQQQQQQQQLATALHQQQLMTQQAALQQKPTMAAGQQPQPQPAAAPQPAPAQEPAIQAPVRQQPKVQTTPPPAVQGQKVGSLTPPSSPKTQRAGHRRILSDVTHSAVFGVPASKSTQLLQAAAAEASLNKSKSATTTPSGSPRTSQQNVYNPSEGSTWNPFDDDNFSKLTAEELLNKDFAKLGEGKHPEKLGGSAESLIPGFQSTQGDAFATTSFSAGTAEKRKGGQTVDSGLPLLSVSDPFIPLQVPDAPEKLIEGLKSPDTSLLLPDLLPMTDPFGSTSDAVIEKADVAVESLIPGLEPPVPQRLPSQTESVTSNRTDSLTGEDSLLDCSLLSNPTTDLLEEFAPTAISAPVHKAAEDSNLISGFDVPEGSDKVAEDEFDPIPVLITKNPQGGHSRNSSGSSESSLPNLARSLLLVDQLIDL
Protocol: as §1
(§3) HEK293 cells were grown to 75–95% confluency in DMEM (Gibco 11995-065) supplemented with FBS (Avantor 97068-085) at 37 °C in […]. On the first day of the assay, cells were harvested and resuspended in Opti-MEM (Gibco 11058-021) supplemented with 1% FBS (Avantor 97068-085) at 2.5 × 10^5 cells per mL. A volume of 60 μL of cell suspension was mixed with 10 μL of prepared DNA (10X concentration) and 30 μL of Fugene (30 μL/mL in Opti-MEM) as outlined by Promega and incubated overnight at 37 °C in a 5% CO2 incubator.
(§4) On day two of the assay, 5 μL of 20X K10 tracer was prepared and added at concentrations recommended by Promega. Then, 10 μL of test compounds at 100 μM in Opti-MEM (diluted from a 10 mM solution in DMSO) was added to the test wells while an equivalent volume of Opti-MEM was added to the high-control wells. Plates were kept at 37 °C in a 5% CO2 incubator for two hours. After two hours, plates were allowed to equilibrate to room temperature for 15 min. A solution of 3X Complete Substrate plus Inhibitor Solution was freshly prepared, consisting of a 1:166 dilution of NanoBRET™ Nano-Glo® Substrate plus a 1:500 dilution of Extracellular NanoLuc® Inhibitor in Opti-MEM® medium without serum or phenol red. A 50 μL volume of the 3X Complete Substrate plus Inhibitor Solution was added to each assay well, including control wells. After 2–3 min, the plate was shaken at 300 RPM for 10 s, and the donor emission wavelength (450 nm) and acceptor emission wavelength (610 nm) were measured using the Glomax® Discover System.
as §2

ABL2 = target: T3, ABL2 (Homo sapiens, UniProt P42684); test: NanoBRET K192; format: cell-based; settings: HEK293
T3 construct: purchased Promega (NanoBRET Target Engagement K192 Kinase Selectivity System)
Protocol: as §1, §3, §4, §2

AURK A = target: T4, AURK A (Homo sapiens, UniProt O14965); test: NanoBRET K192; format: cell-based; settings: HEK293
T4 construct: host or cells: HEK293
Protocol: as §1, §3, §4, §2

CDK18 + Y = target: T5, CDK18 + Y (Homo sapiens, UniProt Q07002); test: NanoBRET K192; format: cell-based; settings: HEK293
T5 construct: purchased Promega (NanoBRET Target Engagement K192 Kinase Selectivity System)
Protocol: as §1, §3, §4, §2

CDK5 + CDK5R1 = target: T6, CDK5 + CDK5R1 (Homo sapiens, UniProt Q00535); test: NanoBRET K192; format: cell-based; settings: HEK293
T6 construct: purchased Promega (NanoBRET Target Engagement K192 Kinase Selectivity System)
Protocol: as §1, §3, §4, §2

CDK9 + K = target: T7, CDK9 + K (Homo sapiens, UniProt P50750); test: NanoBRET K192; format: cell-based; settings: HEK293
T7 construct: purchased Promega (NanoBRET Target Engagement K192 Kinase Selectivity System)
Protocol: as §1, §3, §4, §2

CDKL1 = target: T8, CDKL1 (Homo sapiens, UniProt Q00532); test: NanoBRET K192; format: cell-based; settings: HEK293
T8 construct: purchased Promega (NanoBRET Target Engagement K192 Kinase Selectivity System)
Protocol: as §1, §3, §4, §2

CHEK2 = target: T9, CHEK2 (Homo sapiens, UniProt O96017); test: NanoBRET K192; format: cell-based; settings: HEK293
T9 construct: purchased Promega (NanoBRET Target Engagement K192 Kinase Selectivity System)
T9 sequence (O96017 whole entry): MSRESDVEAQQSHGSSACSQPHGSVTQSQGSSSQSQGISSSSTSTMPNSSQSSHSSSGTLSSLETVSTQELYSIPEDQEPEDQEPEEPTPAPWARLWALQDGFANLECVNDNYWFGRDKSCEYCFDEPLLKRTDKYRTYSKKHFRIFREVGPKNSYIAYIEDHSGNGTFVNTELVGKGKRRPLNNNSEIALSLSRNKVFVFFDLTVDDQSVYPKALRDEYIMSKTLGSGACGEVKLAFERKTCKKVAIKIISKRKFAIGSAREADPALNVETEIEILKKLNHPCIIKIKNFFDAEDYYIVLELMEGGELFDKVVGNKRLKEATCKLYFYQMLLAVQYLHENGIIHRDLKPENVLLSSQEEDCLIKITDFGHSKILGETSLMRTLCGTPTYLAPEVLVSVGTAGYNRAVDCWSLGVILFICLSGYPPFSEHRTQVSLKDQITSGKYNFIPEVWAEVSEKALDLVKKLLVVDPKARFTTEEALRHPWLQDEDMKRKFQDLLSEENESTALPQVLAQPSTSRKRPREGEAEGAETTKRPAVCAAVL
Protocol: as §1, §3, §4, §2

DAPK2 = target: T10, DAPK2 (Homo sapiens, UniProt Q9UIK4); test: NanoBRET K192; format: cell-based
T10 construct: expressed in transfected cells; host or cells: HEK293
T10 sequence (Q9UIK4 whole entry): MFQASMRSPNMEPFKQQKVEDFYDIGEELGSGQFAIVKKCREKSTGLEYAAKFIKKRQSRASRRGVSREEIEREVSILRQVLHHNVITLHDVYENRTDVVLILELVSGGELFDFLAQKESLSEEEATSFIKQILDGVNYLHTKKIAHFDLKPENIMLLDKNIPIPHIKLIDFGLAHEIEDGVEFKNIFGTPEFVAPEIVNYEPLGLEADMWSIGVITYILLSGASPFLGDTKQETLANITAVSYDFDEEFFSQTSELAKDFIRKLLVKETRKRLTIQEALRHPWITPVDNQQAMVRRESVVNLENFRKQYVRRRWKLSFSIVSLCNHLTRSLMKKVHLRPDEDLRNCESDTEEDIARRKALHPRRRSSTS
Protocol: as §1, §3, §4, §2

DCLK3 = target: T11, DCLK3 (Homo sapiens, UniProt Q9C098); test: NanoBRET K192; format: cell-based; settings: HEK293
T11 construct: purchased Promega (NanoBRET Target Engagement K192 Kinase Selectivity System)
T11 sequence (Q9C098 whole entry): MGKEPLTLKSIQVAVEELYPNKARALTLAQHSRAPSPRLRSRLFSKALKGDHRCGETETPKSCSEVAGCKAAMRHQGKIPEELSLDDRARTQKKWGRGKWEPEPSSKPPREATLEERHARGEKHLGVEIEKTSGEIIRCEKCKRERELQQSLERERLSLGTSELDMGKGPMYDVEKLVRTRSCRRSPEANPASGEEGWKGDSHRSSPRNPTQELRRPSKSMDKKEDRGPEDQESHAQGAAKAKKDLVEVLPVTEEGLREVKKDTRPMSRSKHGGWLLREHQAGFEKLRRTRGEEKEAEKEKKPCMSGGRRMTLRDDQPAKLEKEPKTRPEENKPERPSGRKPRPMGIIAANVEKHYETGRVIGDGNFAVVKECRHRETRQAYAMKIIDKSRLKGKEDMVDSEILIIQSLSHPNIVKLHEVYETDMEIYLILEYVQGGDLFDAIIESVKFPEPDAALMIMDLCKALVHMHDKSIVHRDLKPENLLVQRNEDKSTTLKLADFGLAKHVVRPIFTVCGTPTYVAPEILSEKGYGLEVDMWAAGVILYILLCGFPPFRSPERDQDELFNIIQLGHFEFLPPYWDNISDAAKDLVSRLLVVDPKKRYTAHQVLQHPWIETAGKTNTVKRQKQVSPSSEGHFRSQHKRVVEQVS
Protocol: as §1, §3, §4, §2

FGFR3 = target: T12, FGFR3 (Homo sapiens, UniProt P22607); test: NanoBRET K192; format: cell-based; settings: HEK293
T12 construct: purchased Promega (NanoBRET Target Engagement K192 Kinase Selectivity System)
Protocol: as §1, §3, §4, §2

MAP4K3 = target: T13, MAP4K3 (Homo sapiens, UniProt Q8IVH8); test: NanoBRET K192; format: cell-based; settings: HEK293
T13 construct: purchased Promega (NanoBRET Target Engagement K192 Kinase Selectivity System)
T13 sequence (Q8IVH8 whole entry): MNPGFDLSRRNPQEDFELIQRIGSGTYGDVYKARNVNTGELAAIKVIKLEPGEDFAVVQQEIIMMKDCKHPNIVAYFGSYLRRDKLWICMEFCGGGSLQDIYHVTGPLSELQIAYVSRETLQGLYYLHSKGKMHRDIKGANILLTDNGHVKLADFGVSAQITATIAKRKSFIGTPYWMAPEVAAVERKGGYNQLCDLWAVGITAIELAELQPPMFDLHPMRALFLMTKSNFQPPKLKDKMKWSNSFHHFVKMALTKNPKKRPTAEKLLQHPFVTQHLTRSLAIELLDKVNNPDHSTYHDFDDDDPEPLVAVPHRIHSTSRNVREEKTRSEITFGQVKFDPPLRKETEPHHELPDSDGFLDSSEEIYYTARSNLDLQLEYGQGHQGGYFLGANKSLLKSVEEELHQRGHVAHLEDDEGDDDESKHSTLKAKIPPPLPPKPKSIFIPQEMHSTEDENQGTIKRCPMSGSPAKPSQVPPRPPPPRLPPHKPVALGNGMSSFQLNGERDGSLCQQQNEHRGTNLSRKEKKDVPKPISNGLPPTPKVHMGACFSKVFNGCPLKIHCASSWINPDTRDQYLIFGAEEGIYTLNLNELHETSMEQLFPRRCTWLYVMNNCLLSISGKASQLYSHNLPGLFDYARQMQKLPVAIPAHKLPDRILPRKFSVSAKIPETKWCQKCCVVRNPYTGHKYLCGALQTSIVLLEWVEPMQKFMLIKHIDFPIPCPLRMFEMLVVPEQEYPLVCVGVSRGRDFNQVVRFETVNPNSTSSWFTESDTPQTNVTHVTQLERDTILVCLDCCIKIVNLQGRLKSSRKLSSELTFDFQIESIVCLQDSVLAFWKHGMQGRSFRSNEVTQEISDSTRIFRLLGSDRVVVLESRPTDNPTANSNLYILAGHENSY
Protocol: as §1, §3, §4, §2

MERTK = target: T14, MERTK (Homo sapiens, UniProt Q12866); test: NanoBRET K192; format: cell-based; settings: HEK293
T14 construct: purchased Promega (NanoBRET Target Engagement K192 Kinase Selectivity System)
T14 sequence (Q12866 21-999): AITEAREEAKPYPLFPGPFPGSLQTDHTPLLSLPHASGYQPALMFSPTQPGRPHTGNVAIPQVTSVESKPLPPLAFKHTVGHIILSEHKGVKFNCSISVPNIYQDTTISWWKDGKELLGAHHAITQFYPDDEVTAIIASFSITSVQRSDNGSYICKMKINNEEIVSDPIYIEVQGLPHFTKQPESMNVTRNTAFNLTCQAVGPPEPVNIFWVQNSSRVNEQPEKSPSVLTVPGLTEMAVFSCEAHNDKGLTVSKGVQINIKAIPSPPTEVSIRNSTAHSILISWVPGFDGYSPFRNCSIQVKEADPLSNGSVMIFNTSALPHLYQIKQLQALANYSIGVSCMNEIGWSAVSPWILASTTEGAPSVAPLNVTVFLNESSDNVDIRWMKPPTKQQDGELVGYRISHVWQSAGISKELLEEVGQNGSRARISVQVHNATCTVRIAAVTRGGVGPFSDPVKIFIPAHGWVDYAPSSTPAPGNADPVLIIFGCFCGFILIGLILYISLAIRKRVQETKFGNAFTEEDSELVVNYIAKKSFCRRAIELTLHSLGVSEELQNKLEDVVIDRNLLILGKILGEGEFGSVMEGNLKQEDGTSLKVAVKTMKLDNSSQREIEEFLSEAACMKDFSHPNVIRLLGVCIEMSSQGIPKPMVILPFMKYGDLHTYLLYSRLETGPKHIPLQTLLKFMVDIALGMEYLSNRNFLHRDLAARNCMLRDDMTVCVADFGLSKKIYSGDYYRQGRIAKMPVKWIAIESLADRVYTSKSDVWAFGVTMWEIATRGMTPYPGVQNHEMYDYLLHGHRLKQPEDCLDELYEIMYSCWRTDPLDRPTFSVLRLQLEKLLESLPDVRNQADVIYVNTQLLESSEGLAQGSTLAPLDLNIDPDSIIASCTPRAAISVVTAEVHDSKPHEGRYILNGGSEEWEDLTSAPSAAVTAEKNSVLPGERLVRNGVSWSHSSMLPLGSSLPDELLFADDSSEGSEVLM
Protocol: as §1, §3, §4, §2

MLTK = target: T15, MLTK (Homo sapiens, UniProt Q9NYL2); test: NanoBRET K192; format: cell-based; settings: HEK293
T15 construct: purchased Promega (NanoBRET Target Engagement K192 Kinase Selectivity System)
Protocol: as §1, §3, §4, §2

NEK5 = target: T16, NEK5 (Homo sapiens, UniProt Q6P3R8); test: NanoBRET K192; format: cell-based; settings: HEK293
T16 construct: purchased Promega (NanoBRET Target Engagement K192 Kinase Selectivity System)
Protocol: as §1, §3, §4, §2

PTK2B = target: T17, PTK2B (Homo sapiens, UniProt Q14289); test: NanoBRET K192; format: cell-based; settings: HEK293
T17 construct: purchased Promega (NanoBRET Target Engagement K192 Kinase Selectivity System)
Protocol: as §1, §3, §4, §2

STK35 = target: T18, STK35 (Homo sapiens, UniProt Q8TDR2); test: NanoBRET K192; format: cell-based; settings: HEK293
T18 construct: purchased Promega (NanoBRET Target Engagement K192 Kinase Selectivity System)
T18 sequence (Q8TDR2 whole entry): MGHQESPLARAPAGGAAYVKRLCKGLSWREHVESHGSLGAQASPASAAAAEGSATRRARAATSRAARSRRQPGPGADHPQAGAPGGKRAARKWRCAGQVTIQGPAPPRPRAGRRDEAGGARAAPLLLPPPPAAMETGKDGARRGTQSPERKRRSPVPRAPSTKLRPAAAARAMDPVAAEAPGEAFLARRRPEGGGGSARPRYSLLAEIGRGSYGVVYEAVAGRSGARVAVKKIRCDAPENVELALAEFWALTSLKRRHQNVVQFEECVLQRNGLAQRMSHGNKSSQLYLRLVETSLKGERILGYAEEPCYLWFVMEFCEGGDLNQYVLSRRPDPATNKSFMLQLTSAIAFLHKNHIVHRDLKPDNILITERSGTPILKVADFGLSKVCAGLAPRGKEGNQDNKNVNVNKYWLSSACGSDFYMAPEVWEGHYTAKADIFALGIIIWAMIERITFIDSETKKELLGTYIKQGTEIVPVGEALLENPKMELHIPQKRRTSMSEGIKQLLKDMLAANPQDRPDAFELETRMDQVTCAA
Protocol: as §1, §3, §4, §2

TEC = target: T19, TEC (Homo sapiens, UniProt P42680); test: NanoBRET K192; format: cell-based; settings: HEK293
T19 construct: purchased Promega (NanoBRET Target Engagement K192 Kinase Selectivity System)
Protocol: as §1, §3, §4, §2

TLK1 = target: T20, TLK1 (Homo sapiens, UniProt Q9UKI8); test: NanoBRET K192; format: cell-based; settings: HEK293
T20 construct: host or cells: HEK293
Protocol: as §1, §3, §4, §2

For `CCC(=O)Nc1cc(Nc2cc(NC3CC3)n3ncc(C#N)c3n2)c(F)cc1N1CCC[C@H](NC)C1` [Compound 2, (S)-N-(5-((3-cyano-7-(cyclopropylamino)pyrazolo[1,5-a]pyrimidin-5-yl)amino)-4-fluoro-2-(3-(methylamino)piperidin-1-yl)phenyl)propionamide], the IC50 (CLK1) was 29 µM, the CLint scaled at 5 μM [1] was 12.9 mL/min/kg and the “selectivity compared to CSNK2A1 and CSNK2A2” value (192 human kinases) was no less than 1000 fold. It also gave a receptor occupancy at 10 µM (AAK1) of 17.8%, a receptor occupancy at 10 µM (ABL2) of 9.4% and a receptor occupancy at 10 µM (AURK A) of -9.3%. The receptor occupancy at 10 µM (CDK18 + Y) was 17.5%, the receptor occupancy at 10 µM (CDK5 + CDK5R1) was 10.8% and the receptor occupancy at 10 µM (CDK9 + K) was 19.8%. The receptor occupancy at 10 µM (CDKL1) was 1.5%, the receptor occupancy at 10 µM (CHEK2) was -0.8% and the “% occupancy at 10 μM” value (DAPK2; DAPK2, HEK293) was 72%. For the same molecule, the receptor occupancy at 10 µM (DAPK2; HEK293, DAPK2) was 72.1%, the receptor occupancy at 10 µM (DCLK3) was 44.7% and the receptor occupancy at 10 µM (FGFR3) was -0.7%. For the same molecule, the receptor occupancy at 10 µM (MAP4K3) was 2.9%, the receptor occupancy at 10 µM (MERTK) was 4.2% and the receptor occupancy at 10 µM (MLTK) was 1.1%. For the same molecule, the receptor occupancy at 10 µM (NEK5) was 24.8%, the receptor occupancy at 10 µM (PTK2B) was -1.6% and the receptor occupancy at 10 µM (STK35) was 6.5%. For the same molecule, the receptor occupancy at 10 µM (TEC) was 9.1% and the receptor occupancy at 10 µM (TLK1) was -23.1%.
